Results published in publication PMC8165160, “Substrate Specificities and Inhibition Pattern of the Solute Carrier Family 10 Members NTCP, ASBT and SOAT” (Frontiers in Molecular Biosciences, 2021).
Read-outs that look alike come from different tables or passages of the source.

Experiments:
ASBT = target: T1, ASBT (Homo sapiens, UniProt Q12908); experiment: Substrate screening: sodium-dependent uptake of radiolabeled compounds in ASBT-HEK293 cells; assay type: cell-based; conditions: radiolabeled bile acids 1 µM, 30 min, ASBT-HEK293, vs sodium-free control
T1 construct: The full-length open reading frames of NTCP, ASBT, and SOAT were cloned; expressed in transfected cells; host or cells: Flp-In T-REX HEK293 (ASBT-HEK293), tetracycline-induced
T1 sequence (Q12908 1-348): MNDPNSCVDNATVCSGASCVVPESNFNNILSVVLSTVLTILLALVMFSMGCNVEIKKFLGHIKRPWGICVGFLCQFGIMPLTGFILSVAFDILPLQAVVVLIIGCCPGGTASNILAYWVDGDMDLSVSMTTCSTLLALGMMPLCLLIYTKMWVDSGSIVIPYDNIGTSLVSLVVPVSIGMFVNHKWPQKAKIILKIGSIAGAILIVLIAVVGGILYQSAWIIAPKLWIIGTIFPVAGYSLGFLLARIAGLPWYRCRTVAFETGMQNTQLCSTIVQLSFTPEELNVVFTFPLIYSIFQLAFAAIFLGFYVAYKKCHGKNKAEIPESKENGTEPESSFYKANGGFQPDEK
Protocol: (§1) Stably SLC10 transporter transfected NTCP-HEK293, ASBT-HEK293, SOAT-HEK293 cells and the HEK293-FlpIn maternal cell line were seeded on 24-well plates (if not stated otherwise for individual assays). Well plates were coated with poly-D-lysine prior to seeding of 125,000 cells per well. Cells were grown with 1 ml of standard medium per well with or without tetracycline ([…]) for 72 h to induce carrier expression before respective assays were started. HEK293-FlpIn cells were cultivated with standard medium and served as control.
(§2) Uptake experiments were initiated by replacing the preincubation buffer by 500 μL transport buffer containing the radiolabeled test compound and were performed at 37°C. Transport was terminated by removing the transport buffer and washing five-times with ice-cold PBS. Cell monolayers were lysed in 1 N NaOH with 0.1% SDS and the cell-associated radioactivity was determined by liquid scintillation counting.
(§3) FIGURE 1 Comparative substrate screening for bile acids and sulfated steroids in NTCP-, ASBT-, and SOAT-HEK293 cells. Transport assays were performed with the indicated substrates in NTCP-HEK293, ABST-HEK293, SOAT-HEK293, and HEK293-FlpIn cells. Cells were washed and equilibrated with Na^+-containing transport buffer (filled bars) or with Na^+-free transport buffer (open bars) at 37°C. For uptake, cells were incubated with radiolabeled steroid compounds at a final concentration of 200 nM in Na^+-containing or Na^+-free transport buffer for 10 min. Radiolabeled bile acids were used at 1 µM concentrations and transport was analyzed over 30 min. HEK293-FlpIn cells served as additional controls. After the indicated time intervals, cells were washed with ice-cold PBS, lysed and subjected to liquid scintillation counting. […] 3-OH, trihydroxylated BAs; 2-OH, dihydroxylated BAs; 1-OH, monohydroxylated BAs.

NTCP [1] = target: T2, NTCP (Homo sapiens, UniProt Q14973); experiment: Substrate screening: sodium-dependent uptake of radiolabeled compounds in NTCP-HEK293 cells; assay type: cell-based; design: The full-length open reading frames of NTCP, ASBT, and SOAT were cloned; expressed in transfected cells; host or cells: Flp-In T-REX HEK293 (NTCP-HEK293), tetracycline-induced; conditions: NTCP-HEK293, vs sodium-free control
T2 sequence (Q14973 1-349): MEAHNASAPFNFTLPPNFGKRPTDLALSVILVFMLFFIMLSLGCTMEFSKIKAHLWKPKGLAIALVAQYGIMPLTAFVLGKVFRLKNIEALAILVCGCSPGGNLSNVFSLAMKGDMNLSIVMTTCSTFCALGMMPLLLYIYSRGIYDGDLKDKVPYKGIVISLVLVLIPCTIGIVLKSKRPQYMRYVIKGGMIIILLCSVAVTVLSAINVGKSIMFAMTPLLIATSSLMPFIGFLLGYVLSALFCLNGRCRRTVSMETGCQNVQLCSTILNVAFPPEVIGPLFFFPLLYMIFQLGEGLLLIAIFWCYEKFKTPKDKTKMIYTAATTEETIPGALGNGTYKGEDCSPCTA
Protocol: as §1, §2, §3

NTCP [2] = target: T2, NTCP; experiment: Transport inhibition in NTCP-HEK293 cells; conditions: NTCP-HEK293
[3] = radiolabeled bile acids 1 µM, 30 min

Row | Compound | Transport activity grading ASBT (mean uptake) (ASBT) | Transport activity grading NTCP (mean uptake) (NTCP [1]; [3]) | further results
1 | C[C@H](CCC(=O)O)[C@H]1CC[C@H]2[C@@H]3[C@H](O)C[C@@H]4C[C@H](O)CC[C@]4(C)[C@H]3CC[C@]12C [Chenodeoxycholic acid] | + (Mean uptake of bile acids “+” for values below 500) | + (Mean uptake of bile acids “+” for values below 500) | 
2 | C[C@H](CCC(=O)O)[C@H]1CC[C@H]2[C@@H]3[C@H](O)C[C@@H]4C[C@H](O)CC[C@]4(C)[C@H]3C[C@H](O)[C@]12C [Cholic acid] | + (Mean uptake of bile acids “+” for values below 500) | ++ (“++” for values between 500 and 1000) | 
3 | C[C@H](CCC(=O)O)[C@H]1CC[C@H]2[C@@H]3CC[C@@H]4C[C@H](O)CC[C@]4(C)[C@H]3C[C@H](O)[C@]12C [Deoxycholic acid] | + (Mean uptake of bile acids “+” for values below 500) | + (Mean uptake of bile acids “+” for values below 500) | 
4 | C[C@]12CC[C@@H]3c4ccc(O[C@@H]5O[C@H](C(=O)O)[C@@H](O)[C@H](O)[C@H]5O)cc4CC[C@H]3[C@@H]1CCC2=O [Estrone-3β-D-glucuronide] |  |  | Transport activity grading NTCP (mean uptake) (NTCP [1]; radiolabeled steroid compounds 200 nM, 10 min): + (Mean uptake “+” for values below 10)
5 | CC(CCC(=O)NCC(=O)O)C1CCC2C3C(O)CC4CC(O)CCC4(C)C3CCC12C (stereo not drawn) [Glycochenodeoxycholic acid] | ++ (“++” for values between 500 and 1000) | +++ (“+++” for values above 1000 pmol/mg protein/30 min) | 
6 | C[C@H](CCC(=O)NCC(=O)O)[C@H]1CC[C@H]2[C@@H]3[C@H](O)C[C@@H]4C[C@H](O)CC[C@]4(C)[C@H]3C[C@H](O)[C@]12C [Glycocholic acid] | ++ (“++” for values between 500 and 1000) | +++ (“+++” for values above 1000 pmol/mg protein/30 min) | 
7 | CC(CCC(=O)NCC(=O)O)C1CCC2C3CCC4CC(O)CCC4(C)C3CC(O)C12C (stereo not drawn) [Glycodeoxycholic acid] | ++ (“++” for values between 500 and 1000) | +++ (“+++” for values above 1000 pmol/mg protein/30 min) | 
8 | C[C@H](CCC(=O)NCC(=O)O)[C@H]1CC[C@H]2[C@@H]3[C@@H](O)C[C@@H]4C[C@H](O)CC[C@]4(C)[C@H]3CC[C@]12C [Glycoursodeoxycholic acid] | ++ (“++” for values between 500 and 1000) | +++ (“+++” for values above 1000 pmol/mg protein/30 min) | 
9 | C[C@H](CCC(=O)NCCS(=O)(=O)O)[C@H]1CC[C@H]2[C@@H]3[C@H](O)C[C@@H]4C[C@H](O)CC[C@]4(C)[C@H]3CC[C@]12C [Taurochenodeoxycholic acid] | ++ (“++” for values between 500 and 1000) | +++ (“+++” for values above 1000 pmol/mg protein/30 min) | 
10 | C[C@H](CCC(=O)O)[C@H]1CC[C@H]2[C@@H]3[C@@H](O)C[C@@H]4C[C@H](O)CC[C@]4(C)[C@H]3CC[C@]12C [Ursodeoxycholic acid] |  | + (Mean uptake of bile acids “+” for values below 500) | 
11 | myr-preS1: 2–48 N-terminal amino acids of the myristoylated preS1 domain of the HBV/HDV large envelope protein (GQNLSTSNPLGFFPDHQLDPAFRANTANPDWDFNPNKDTWPDANKVG; N-terminal myristoyl on Gly2) |  |  | IC50 (NTCP [2]; read-out: IC50 for inhibition of [3H]DHEAS transport via NTCP, 200 nM DHEAS): 167 nM; IC50 (NTCP [2]; read-out: IC50 for inhibition of [3H]TC transport via NTCP, 200 nM TC): 182 nM; IC50 (NTCP [2]; read-out: IC50 for inhibition of [3H]TLC transport via NTCP, 200 nM TLC): 316 nM
